target: T1, human LPA1 (Homo sapiens, UniProt Q92633); test: LPA1 functional antagonist assay (LPA-induced calcium flux); assay type: cell-based; details: CHO cells overexpressing human LPA1; inhibition of calcium flux induced by 10 nM LPA; read-out: hLPA1 IC50
T1 construct: expressed in transfected cells; host or cells: Chinese hamster ovary (CHO) cells
Procedure, shortened: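 CHO cells overexpressing human LPA1, loaded with calcium dye 30 min at 37° C, were preincubated 20 min at room temperature with compound (0.08 nM–5 μM, 0.5% DMSO) in HBSS/20 mM HEPES/0.1% fatty acid-free BSA.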

T1 sequence (Q92633 whole entry): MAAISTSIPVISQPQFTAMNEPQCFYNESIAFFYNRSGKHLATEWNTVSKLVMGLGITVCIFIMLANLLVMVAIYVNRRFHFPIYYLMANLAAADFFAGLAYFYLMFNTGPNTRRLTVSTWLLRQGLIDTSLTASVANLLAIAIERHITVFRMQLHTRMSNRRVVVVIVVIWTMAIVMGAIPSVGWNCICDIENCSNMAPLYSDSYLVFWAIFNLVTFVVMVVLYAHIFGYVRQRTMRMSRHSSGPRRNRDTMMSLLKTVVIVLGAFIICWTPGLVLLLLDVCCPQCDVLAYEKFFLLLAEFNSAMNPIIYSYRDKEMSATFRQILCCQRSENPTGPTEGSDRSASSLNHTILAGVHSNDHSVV

Row | IC50 | Structure (SMILES)
1 | 70 nM | Cc1nc(-c2nnn(C)c2COC(=O)N(C)C[C@@H]2C[C@H]2C)cnc1O[C@H]1CCC[C@H](C(=O)O)C1 [Example 235, (1S,3S)-3-((3-methyl-5-(1-methyl-5-(((methyl(((1R,2R)-2-methylcyclopropyl)methyl)carbamoyl)oxy)methyl)-1H-1,2,3-triazol-4-yl)pyrazin-2-yl)oxy)cyclohexane-1-carboxylic acid]
2 | 46 nM | Cc1nc(-c2nnn(C)c2COC(=O)N(C)C[C@H]2C[C@@H]2C)cnc1O[C@H]1CCC[C@H](C(=O)O)C1 [Example 236, (1S,3S)-3-((3-methyl-5-(1-methyl-5-(((methyl(((1S,2S)-2-methylcyclopropyl)methyl)carbamoyl)oxy)methyl)-1H-1,2,3-triazol-4-yl)pyrazin-2-yl)oxy)cyclohexane-1-carboxylic acid]
3 | 2400 nM | CN(CC1CC1)C(=O)OCc1c(-c2cnc(O[C@H]3CCC[C@H](C(=O)O)C3)c(C(F)(F)F)c2)nnn1C [Example 237, (1S,3S)-3-((5-(5-((((cyclopropylmethyl)(methyl)carbamoyl)oxy)methyl)-1-methyl-1H-1,2,3-triazol-4-yl)-3-(trifluoromethyl)pyridin-2-yl)oxy)cyclohexane-1-carboxylic acid]
4 | 174 nM | CN(C(=O)OCc1c(-c2cnc(O[C@H]3CCC[C@H](C(=O)O)C3)c(C(F)(F)F)c2)nnn1C)C1CCCC1 [Example 238, (1S,3S)-3-((5-(5-(((cyclopentyl(methyl)carbamoyl)oxy)methyl)-1-methyl-1H-1,2,3-triazol-4-yl)-3-(trifluoromethyl)pyridin-2-yl)oxy)cyclohexane-1-carboxylic acid]
5 | 440 nM | CN(CC1CCC1)C(=O)OCc1c(-c2cnc(O[C@H]3CCC[C@H](C(=O)O)C3)c(C(F)(F)F)c2)nnn1C [Example 239, (1S,3S)-3-((5-(5-((((cyclobutylmethyl)(methyl)carbamoyl)oxy)methyl)-1-methyl-1H-1,2,3-triazol-4-yl)-3-(trifluoromethyl)pyridin-2-yl)oxy)cyclohexane-1-carboxylic acid]
6 | 1210 nM | CN(C(=O)OCc1c(-c2cnc(O[C@H]3CCC[C@H](C(=O)O)C3)c(C(F)(F)F)c2)nnn1C)C1CCC1 [Example 240, (1S,3S)-3-((5-(5-(((cyclobutyl(methyl)carbamoyl)oxy)methyl)-1-methyl-1H-1,2,3-triazol-4-yl)-3-(trifluoromethyl)pyridin-2-yl)oxy)cyclohexane-1-carboxylic acid]
7 | 41 nM | Cc1nc(-c2nnn(C)c2CCOC(=O)N(C)CC2CCC2)ccc1O[C@H]1CCC[C@H](C(=O)O)C1 [Example 241, (1S,3S)-3-((6-(5-(2-(((Cyclobutylmethyl)(methyl)carbamoyl)oxy)ethyl)-1-methyl-1H-1,2,3-triazol-4-yl)-2-methylpyridin-3-yl)oxy)cyclohexane-1-carboxylic Acid]
8 | 319 nM | CCCN(C)C(=O)OCCc1c(-c2ccc(O[C@H]3CCC[C@H](C(=O)O)C3)c(C)n2)nnn1C [Example 242, (1S,3S)-3-((2-Methyl-6-(1-methyl-5-(2-((methyl(propyl)carbamoyl)oxy)-ethyl)-1H-1,2,3-triazol-4-yl)pyridin-3-yl)oxy)cyclohexane-1-carboxylic acid]
9 | 72 nM | Cc1nc(-c2nnn(C)c2CCOC(=O)N(C)C2CCCC2)ccc1O[C@H]1CCC[C@H](C(=O)O)C1 [Example 243, (1S,3S)-3-((6-(5-(2-((Cyclopentyl-(methyl)carbamoyl)oxy)ethyl)-1-methyl-1H-1,2,3-triazol-4-yl)-2-methylpyridin-3-yl)oxy)cyclohexane-1-carboxylic acid]
10 | 54 nM | Cc1nc(-c2nnn(C)c2CCOC(=O)N(C)Cc2ccccc2)ccc1O[C@H]1CCC[C@H](C(=O)O)C1 [Example 244, (1S,3S)-3-((6-(5-(2-((Benzyl(methyl)-carbamoyl)oxy)ethyl)-1-methyl-1H-1,2,3-triazol-4-yl)-2-methylpyridin-3-yl)oxy)cyclohexane-1-carboxylic acid]
11 | 69 nM | Cc1nc(-c2nnn(C)c2CCOC(=O)N(C)CC(C)C)ccc1O[C@H]1CCC[C@H](C(=O)O)C1 [Example 245, (1S,3S)-3-((6-(5-(2-((Isobutyl-(methyl)carbamoyl)oxy)ethyl)-1-methyl-1H-1,2,3-triazol-4-yl)-2-methylpyridin-3-yl)oxy)cyclohexane-1-carboxylic acid]
12 | 210 nM | Cc1nc(-c2nnn(C)c2CCOC(=O)N2CCCC2)ccc1O[C@H]1CCC[C@H](C(=O)O)C1 [Example 246, (2S,3S)-3-((2-Methyl-6-(1-methyl-5-(2-((pyrrolidine-1-carbonyl)oxy)-ethyl)-1H-1,2,3-triazol-4-yl)pyridin-3-yl)oxy)cyclohexane-1-carboxylic acid]
13 | 41 nM | Cc1nc(-c2nnn(C)c2CCOC(=O)N(C)C2CCC2)ccc1O[C@H]1CCC[C@H](C(=O)O)C1 [Example 247, (1S,3S)-3-((6-(5-(2-((Cyclobutyl(methyl)carbamoyl)oxy)ethyl)-1-methyl-1H-1,2,3-triazol-4-yl)-2-methylpyridin-3-yl)oxy)cyclo-hexane-1-carboxylic acid]
14 | 144 nM | Cc1nc(-c2nnn(C)c2CCOC(=O)NCC2CCC2)ccc1O[C@H]1CCC[C@H](C(=O)O)C1 [Example 248, (1S,3S)-3-((6-(5-(2-(((Cyclobutyl-methyl)carbamoyl)oxy)ethyl)-1-methyl-1H-1,2,3-triazol-4-yl)-2-methylpyridin-3-yl)oxy)cyclohexane-1-carboxylic acid]
15 | 122 nM | Cc1nc(-c2nnn(C)c2CCCOC(=O)N(C)Cc2ccccc2)ccc1O[C@H]1CCC[C@H](C(=O)O)C1 [Example 249, (1S,3S)-3-((6-(5-(3-((Benzyl(methyl)carbamoyl)oxy)propyl)-1-methyl-1H-1,2,3-triazol-4-yl)-2-methylpyridin-3-yl)oxy)cyclohexane-1-carboxylic Acid]
16 | 314 nM | CCCOCCN(C)C(=O)OCc1c(-c2ccc(O[C@H]3CCC[C@H](C(=O)O)C3)c(C)n2)nnn1C [Example 250, (1S,3S)-3-((2-methyl-6-(1-methyl-5-(((methyl(2-propoxyethyl)carbamoyl)oxy)methyl)-1H-1,2,3-triazol-4-yl)pyridin-3-yl)oxy)cyclohexane-1-carboxylic acid]
17 | 27 nM | C[C@@H]1C[C@H]1CN(C)C(=O)OCc1c(-c2ccc(O[C@H]3CCC[C@H](C(=O)O)C3)cn2)nnn1C [Example 251, (1S,3S)-3-((6-(1-methyl-5-(((methyl(((1R,2R)-2-methylcyclopropyl)methyl)carbamoyl)oxy)methyl)-1H-1,2,3-triazol-4-yl)pyridin-3-yl)oxy)cyclohexane-1-carboxylic acid]
18 | 29 nM | C[C@H]1C[C@@H]1CN(C)C(=O)OCc1c(-c2ccc(O[C@H]3CCC[C@H](C(=O)O)C3)cn2)nnn1C [Example 252, (1S,3S)-3-((6-(1-methyl-5-(((methyl(((1S,2S)-2-methylcyclopropyl)methyl)carbamoyl)oxy)methyl)-1H-1,2,3-triazol-4-yl)pyridin-3-yl)oxy)cyclohexane-1-carboxylic acid]
19 | 134 nM | Cc1nc(-c2nnn(C)c2COC(=O)N(C)CC(C)(C)F)ccc1O[C@H]1CCC[C@H](C(=O)O)C1 [Example 253, (1S,3S)-3-((6-(5-((((2-fluoro-2-methylpropyl)(methyl)carbamoyl)oxy)methyl)-1-methyl-1H-1,2,3-triazol-4-yl)-2-methylpyridin-3-yl)oxy)cyclohexane-1-carboxylic acid]
20 | 17 nM | Cc1nc(-c2nnn(C)c2COC(=O)N(C)CCCC(C)F)ccc1O[C@H]1CCC[C@H](C(=O)O)C1 (stereo partly drawn) [Example 256, (1S,3S)-3-((6-(5-((((4-fluoropentyl)(methyl)carbamoyl)oxy)methyl)-1-methyl-1H-1,2,3-triazol-4-yl)-2-methylpyridin-3-yl)oxy)cyclohexane-1-carboxylic acid]
21 | 18 nM | Cc1nc(-c2nnn(C)c2COC(=O)N(C)C[C@@H]2C[C@H]2C)ccc1O[C@H]1CCC[C@H](C(=O)O)C1 [Example 257, (1S,3S)-3-((2-methyl-6-(1-methyl-5-(((methyl(((1R,2R)-2-methylcyclopropyl)methyl)carbamoyl)oxy)methyl)-1H-1,2,3-triazol-4-yl)pyridin-3-yl)oxy)cyclohexane-1-carboxylic Acid]
22 | 134 nM | Cc1nc(-c2nnn(C)c2COC(=O)N(C)CC(C)(F)F)ccc1O[C@H]1CCC[C@H](C(=O)O)C1 [Example 259, (1S,3 S)-3-((6-(5-((((2,2-difluoropropyl)(methyl)carbamoyl)oxy)methyl)-1-methyl-1H-1,2,3-triazol-4-yl)-2-methylpyridin-3-yl)oxy)cyclohexane-1-carboxylic Acid]
23 | 50 nM | Cc1nc(-c2nnn(C)c2COC(=O)N(C)CCC(C)F)ccc1O[C@H]1CCC[C@H](C(=O)O)C1 (stereo partly drawn) [Example 260, (1S,3 S)-3-((6-(5-((((3-fluorobutyl)(methyl)carbamoyl)oxy)methyl)-1-methyl-1H-1,2,3-triazol-4-yl)-2-methylpyridin-3-yl)oxy)cyclohexane-1-carboxylic Acid]
24 | 145 nM | Cc1nc(-c2nnn(C)c2COC(=O)N(C)CC(C)F)ccc1O[C@H]1CCC[C@H](C(=O)O)C1 (stereo partly drawn) [Example 261, (1S,3S)-3-((6-(5-((((2-fluoropropyl)(methyl)carbamoyl)oxy)methyl)-1-methyl-1H-1,2,3-triazol-4-yl)-2-methylpyridin-3-yl)oxy)cyclohexane-1-carboxylic acid]
25 | 29 nM | Cc1nc(-c2nnn(C)c2COC(=O)N(C)CC2CC2C)ccc1O[C@H]1CCC[C@H](C(=O)O)C1 (stereo partly drawn) [Example 262, (1S,3S)-3-((2-methyl-6-(1-methyl-5-(((methyl((2-methylcyclopropyl)methyl)carbamoyl)oxy)methyl)-1H-1,2,3-triazol-4-yl)pyridin-3-yl)oxy)cyclohexane-1-carboxylic acid]

— patent publication US10576062B2, “Carbamoyloxymethyl triazole cyclohexyl acids as LPA antagonists” (Bristol-Myers Squibb Company, priority 2016, dated 2020)
